Reference: patent US20210284668A1, “GOLD (I)-PHOSPHINE 1,2,3-TRIAZOLE DERIVATIVES WITH ANTIBIOTIC PROPERTIES” (Centre National de la Recherche Scientifique, priority 2018, published 2021)
Several values for one entry are separate records, joined by “and”; a condition that tells them apart may be missing. Equal entries are not always repeated.

Assays:
S. aureus ATCC25923 = assay: MIC by microdilution, S. aureus ATCC25923; assay type: cell-based, Staphylococcus aureus; settings: S. aureus ATCC25923 (MecA negative, wild-type), Mueller-Hinton broth, in duplicate
Procedure, shortened: (§1)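 Broth microdilution per CLSI (M07-A10) in Mueller-Hinton broth, run in duplicate; MIC recorded as minimal inhibitory concentration. Panel spans wild-type to multidrug-resistant strains, e.g. S. aureus ATCC700699 (MecA+, glycopeptide resistant), S. epidermidis ATCC35984 (MecA+), E. coli ATCC25922 (wild-type).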

[1] = system: panel of Gram-positive and Gram-negative strains; assay: Antibacterial profile on the selected panel of strains; assay type: cell-based; settings: summary of Tables 1-12
Procedure, shortened: (§2)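 Broth microdilution per CLSI document M07-A10, Mueller-Hinton medium, each MIC run in duplicate. Strains include E. coli ATCC25922 (wild-type), S. epidermidis ATCC35984 (MecA positive) and S. aureus ATCC700699 (MecA positive, glycopeptide resistant), within a mixed panel of susceptible and resistant Gram-positive/Gram-negative bacteria.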

E. coli ATCC25922 = assay: MIC by microdilution, E. coli ATCC25922; assay type: cell-based, Escherichia coli; settings: E. coli ATCC25922 (wild-type), in duplicate
Procedure, shortened: as §2

E. faecium ATCC19434T = assay: MIC by microdilution, E. faecium ATCC19434T; assay type: cell-based, Enterococcus faecium; parameters: unit not given here; settings: E. faecium ATCC19434T (wild-type), in duplicate
Procedure, shortened: as §1

E. faecalis UCN41 = assay: MIC by microdilution, E. faecalis UCN41; assay type: cell-based, Enterococcus faecalis; parameters: unit not given here; settings: E. faecalis UCN41 (VanA positive, glycopeptide resistant), in duplicate
Procedure, shortened: as §1

[2] = system: S. epidermidis ST20140436; assay: MIC by microdilution, S. epidermidis ST20140436; assay type: cell-based, Staphylococcus epidermidis; settings: S. epidermidis ST20140436 (MecA positive, glycopeptide resistant), in duplicate
Procedure, shortened: as §1

E. faecalis JH2-2 = assay: MIC by microdilution, E. faecalis JH2-2; assay type: cell-based, Enterococcus faecalis; parameters: unit not given here; settings: E. faecalis JH2-2 (wild-type), in duplicate
Procedure, shortened: as §1

E. faecium BM4147 = assay: MIC by microdilution, E. faecium BM4147; assay type: cell-based, Enterococcus faecium; parameters: unit not given here; settings: E. faecium BM4147 (VanA positive, glycopeptide resistant), in duplicate
Procedure, shortened: as §1

S. aureus ST20131365 = assay: MIC by microdilution, S. aureus ST20131365; assay type: cell-based, Staphylococcus aureus; settings: S. aureus ST20131365 (MecA positive, glycopeptide resistant), in duplicate
Procedure, shortened: as §2

E. faecium AUS0004 = assay: MIC by microdilution, E. faecium AUS0004; assay type: cell-based, Enterococcus faecium; settings: E. faecium AUS0004 (VanB positive, glycopeptide resistant), in duplicate
Procedure, shortened: as §1

[3] = system: S. epidermidis ST20150446; assay: MIC by microdilution, S. epidermidis ST20150446; assay type: cell-based, Staphylococcus epidermidis; settings: S. epidermidis ST20150446 (MecA positive, glycopeptide resistant), in duplicate
Procedure, shortened: as §1

S. aureus ATCC29213 = assay: MIC by microdilution, S. aureus ATCC29213; assay type: cell-based, Staphylococcus aureus; settings: S. aureus ATCC29213 (MecA negative, wild-type), Mueller-Hinton broth, in duplicate
Procedure, shortened: as §1

S. epidermidis ATCC35984 = assay: MIC by microdilution, S. epidermidis ATCC35984; assay type: cell-based, Staphylococcus epidermidis; settings: S. epidermidis ATCC35984 (MecA positive), in duplicate
Procedure, shortened: as §2

[4] = system: Clostridium difficile ATCC700057; assay: MIC by microdilution, Clostridium difficile; assay type: cell-based; settings: strain ATCC70057 [sic] (Tables 1-2) / ATCC700057 (Tables 3-10), in duplicate
E. faecalis V583 = assay: MIC by microdilution, E. faecalis V583; assay type: cell-based, Enterococcus faecalis; settings: E. faecalis V583 (VanB positive, glycopeptide resistant), in duplicate
Procedure, shortened: as §2

S. epidermidis ATCC14990 = assay: MIC by microdilution, S. epidermidis ATCC14990; assay type: cell-based, Staphylococcus epidermidis; settings: S. epidermidis ATCC14990 (MecA negative, wild-type), in duplicate
Procedure, shortened: as §2

S. aureus ATCC700699 = assay: MIC by microdilution, S. aureus ATCC700699; assay type: cell-based, Staphylococcus aureus; parameters: unit not given here; settings: S. aureus ATCC700699 (MecA positive, glycopeptide resistant), in duplicate
Procedure, shortened: as §2

Compound | Minimal Inhibitory Concentration (MIC) (S. aureus ATCC25923) | antimicrobial / antibacterial activity (in words) [1] | Minimal Inhibitory Concentration (MIC) (E. coli ATCC25922) | Minimal Inhibitory Concentration (MIC) (E. faecium ATCC19434T) | Minimal Inhibitory Concentration (MIC) (E. faecalis UCN41) | Minimal Inhibitory Concentration (MIC) [2] | Minimal Inhibitory Concentration (MIC) (E. faecalis JH2-2) | Minimal Inhibitory Concentration (MIC) (E. faecium BM4147) | Minimal Inhibitory Concentration (MIC) (S. aureus ST20131365) | Minimal Inhibitory Concentration (MIC) (E. faecium AUS0004) | Minimal Inhibitory Concentration (MIC) [3] | Minimal Inhibitory Concentration (MIC) (S. aureus ATCC29213) | Minimal Inhibitory Concentration (MIC) (S. epidermidis ATCC35984) | Minimal Inhibitory Concentration (MIC) [4] | Minimal Inhibitory Concentration (MIC) (E. faecalis V583) | Minimal Inhibitory Concentration (MIC) (S. epidermidis ATCC14990) | Minimal Inhibitory Concentration (MIC) (S. aureus ATCC700699)
CC[P+](CC)(CC)[Au-][c]1nn[nH]c1COC(=O)N[C@H](Cc1ccccc1)C(=O)O [TMB27] | 0.25 | have antimicrobial activity | >8 | 1 | 0.5 and 1 | 0.125 | 0.5 | 1 | 0.5 | 2 | 0.125 | 0.25 and 0.5 | ≤0.06 | 0.125 | 1 | ≤0.06 | 0.25
CC[P+](CC)(CC)[Au-][c]1nn[nH]c1COC(=O)NC(C(=O)O)c1ccccc1 (stereo not shown) [TMB1] | 0.125 | have antimicrobial activity | >8 | 0.5 | 0.5 | ≤0.06 | 0.25 and 0.5 | 1 | 0.125 | 0.5 | ≤0.06 | 0.125 | ≤0.06 | ≤0.06 | 0.5 and 1 | ≤0.06 | 0.125 and 0.25
CC[P+](CC)(CC)[Au-][c]1nn[nH]c1COC(=O)N1CCC[C@@H]1C(=O)O [TMB28] | 0.125 | have antimicrobial activity | >8 | 0.25 | 0.25 | 0.125 | 0.25 | 0.5 | 0.25 and 0.5 | 0.5 | 0.125 | 0.25 | ≤0.06 | 0.125 and 0.25 | 0.25 | ≤0.06 | 0.125
CC[P+](CC)(CC)[Au-][c]1nn[nH]c1-c1cccc(C(=O)O)c1 [TMB13] | 0.125 | have antimicrobial activity | >8 | 0.5 | 1 and 2 | ≤0.06 | 1 and 2 | 2 | 0.25 | 1 and 2 | ≤0.06 | 0.125 and 0.25 | ≤0.06 | ≤0.06 | 1 and 2 | ≤0.06 | 0.25
CC[P+](CC)(CC)[Au-][c]1nn[nH]c1COC(=O)NC(C(=O)NC)c1ccccc1 (stereo not shown) [TMB8] | 0.25 | have antimicrobial activity | >8 | 1 and 2 | 1 and 2 | 0.125 | 1 | 2 | 0.25 and 0.5 | 2 | 0.125 | 0.25 | ≤0.06 | ≤0.06-0.125 | 2 | ≤0.06 | 0.25 and 0.5
CC1(C)S[C@@H]2[C@H](NC(=O)[C@H](NC(=O)CCc3cnnn3Cc3ccccc3)c3ccccc3)C(=O)N2[C@H]1C(=O)O [TMB6] | 0.5 | do not show an antibacterial activity | >8 | 8 | 8 | 4 | 2 and 4 | >8 | >8 | >8 | 4 and 8 | 0.5 and 1 | >8 | 2-4 | 4 | 0.5 | >8
CC[P+](CC)(CC)[Au-][c]1nn[nH]c1COC(=O)N[C@H](Cc1c[nH]c2ccccc12)C(=O)O [TMB30] | 0.25 | have antimicrobial activity | >8 | 0.5 | 0.5 | 0.125 | 0.5 | 1 | 0.25 | 1 | 0.125 | 0.25 | ≤0.06 | 0.125 | 0.5 | ≤0.06 | 0.25
CC[P+](CC)(CC)[Au-][c]1nn[nH]c1COC(=O)NC(C(=O)OC(C)(C)C)c1ccccc1 (stereo not shown) [TMB15] | 0.25 and 0.5 | have antimicrobial activity | >8 | 2 | 2 | 0.125 | 2 | 4 | 0.25 and 0.5 | 2 | 0.125 and 0.25 | 0.5 | ≤0.06 | 0.125 and 0.25 | 2 and 4 | ≤0.06 | 0.5
